This is an account of results in paper PMC9200803, “Design, synthesis, and biological evaluation of tetrahydroquinolinones and tetrahydroquinolines with anticancer activity” (Scientific Reports, 2022).

Some results are limits rather than exact numbers.

Holding throughout (assay type): cell-based, human
One assay deals with HEK293 cells. In words: MTT cell viability assay, HEK293. To be noted: Homo sapiens, HEK293, IC50 ± SD. A general note: Tetrazolium assays rely on reduction of a dye to a coloured formazan, in cell work by metabolically active cells.
Assay [1] relates to HCT-116 cells. In words: Western blot protein expression in HCT-116 cells. The procedure:
HCT-116 cells were seeded into 60-mm Petri dishes at a density of 1.5 × 10^6 cells per dish and incubated overnight. […] After treatment, cells were lysed in Laemmli buffer with a protease and phosphatase inhibitors cocktail (Roche), followed by sonification The lysate was cleared by centrifuging at 16,000×g for 15 min at 12 °C. The supernatant was collected, and the extract was quantified for protein using the DC Protein Assay (Bio-Rad). Proteins were resolved by 10% or 12% sodium dodecyl sulfate–polyacrylamide gel electrophoresis and transferred to polyvinylidene difluoride membranes (Bio-Rad). Membranes were blocked using 5% (w/v) bovine serum albumin (Sigma-Aldrich) in 1× TBST (pH 7.4 and 0.1% Tween-20) for 1 h at room temperature and subsequently incubated overnight with primary antibodies at 4 °C. The blots were washed thrice with TBST and then incubated with horseradish peroxidase-conjugated antibodies for 1 h at room temperature. After washing, the membranes were evaluated for detecting the protein bands using enhanced chemiluminescence detection reagent kit (Thermo Fisher) and ChemiDoc XRS + Imaging System (Bio-Rad). The band intensity was measured using ImageLab 5.2 software (Bio-Rad).
For orientation: A western blot detects proteins with antibodies after separation by electrophoresis.

The test system of assay [2] is HCT-116 cells. In words: Annexin V-FITC / PI staining, flow cytometry. To be noted: HCT-116, Annexin V/PI. The source says:
Due to its ability to mediate the redox signaling pathways, ROS interplays between two major types of programmed cell death: autophagy and apoptosis. One of the early events in the process of apoptosis is the translocation of phosphatidylserine to the exposed membrane surface, which can be detected using Annexin V, a protein with a high affinity to this phospholipid. In order to study the impact of 20d on apoptotic cell death, flow cytometry analyses with double-staining using Annexin V-fluorescein isothiocyanate (FITC) conjugate and propidium ioidide (PI) was performed.
To determine the proapoptotic activity of compounds, cells were seeded into Petri dishes. […] DMSO (1%, Merck) and Etoposide (10 μM, Sigma-Aldrich) were used as references. Cells were harvested and stained with FITC-Annexin V, (Thermo Fisher, V13242) according to the manufacturer’s instructions. Finally, cells were stained with propidium iodide (Thermo Fisher) and assessed using a Guava easyCyte 8 cell sorter (Merck Millipore). The results were analyzed using FlowJo v10 software.
On the technique in general: In flow cytometry, cells or beads pass a laser one at a time.

In assay [3] the test system is hMLH1-deficient (MMR–) RKO cells. In words: MTT cell viability assay, hMLH1-deficient (MMR–) RKO. The source says: We further attempted to determine whether 20d-induced cancer cell death was related to the induction of ROS production in HCT-116 cells. For this purpose, we pretreated cells with N-acetyl-L-cysteine (NAC), which is a commonly used antioxidant and ROS scavenger. […] HCT-116 cell line has high-frequency microsatellite instability, which is associated with deficient DNA mismatch repair (MMR)[31]. The MMR system corrects DNA-mismatched and insertion–deletion loop bases generated during DNA replication. One of the key proteins involved in the MMR pathway is MLH1, which is mutated or epigenetically silenced in many MMR-deficient (MMR^–) cells, such as HCT-116[33]. To further determine the selectivity for MMR deficiency, we analyzed the cell viability of human MutL homologue 1 (hMLH1)-deficient (MMR^–) and hMLH1-proficient (MMR^+) RKO human colon carcinoma cell lines. The latter was established by transfecting hMLH1 cDNA into MMR^− RKO cell line[34]. In MMR^– RKO cells, the hMLH1 gene promoter was silenced transcriptionally by hypermethylation. […]
The viability of cells was determined in response to the newly synthesized compounds using the MTT (Sigma-Aldrich) assay. […] Next, the medium was removed, the formazan product formed was dissolved in 100 μl of DMSO, and the absorbance was determined at 540 nm using an ASYS UVM340 microplate reader (Biochrom Ltd.). […]

A further assay deals with A-549 cells. In words: MTT cell viability assay, A-549. The procedure: To evaluate the effects of the newly synthesized tetrahydroquinolin-2(1H)-one derivatives on cell viability, we treated human colon cancer cells HCT-116, human breast cancer cells MCF-7, and human non-small cell lung cancer cells A-549 with different concentrations of the compounds for 72 h. After incubation, the MTT (3-(4,5-dimethylthiazol-2-yl)-2,5-diphenyltetrazolium bromide) assay was performed and the cytotoxic potency of compounds (expressed in IC50) on the cells was determined in comparison to control cells treated with 1% of dimethyl sulfoxide (DMSO) (Table 1). […] We also compared the activity of 20d and 19b to the reference control drug Cisplatin, which is widely used in chemotherapy.
A-549 (CCL-185) and MCF-7 ([…]) cells were cultured in RPMI-1640 medium, while HCT-116 (CVCL-427), (hMLH1)-deficient (MMR^–) and hMLH1-proficient (MMR^+) RKO cells were cultured in McCoy’s 5A medium. The culture media were supplemented with 10% fetal bovine serum, 2 mM L-glutamine, and antibiotics (penicillin 62.6 µg/ml and streptomycin 40 µg/ml). Cultivation of cell lines was carried out at 37 °C under a humidified atmosphere containing 5% CO2, and the cultures were routinely screened for Mycoplasma contamination. A-549, MCF-7, and HCT-116 cells were obtained from American Type Culture Collection (ATCC), while RKO colon carcinoma cells were a kind gift of Dr Timothy Kinsella (Brown University, USA).
The viability of cells was determined in response to the newly synthesized compounds using the MTT (Sigma-Aldrich) assay. Briefly, cells were seeded into 96-well plates and allowed to attach overnight. Then, cells were exposed to various concentrations of compounds for 24, 48 or 72 h. Negative controls were treated with the same amount of DMSO solvent (1%). After treatment, the MTT solution (0.4 mg/ml) was added to each well and allowed to react with cells for 2–3 h at 37 °C. Next, the medium was removed, the formazan product formed was dissolved in 100 μl of DMSO, and the absorbance was determined at 540 nm using an ASYS UVM340 microplate reader (Biochrom Ltd.). The IC50 value, which represents the concentration of the compound required to inhibit cell growth by 50% compared to vehicle, was calculated using GraphPad Prism 8 software based on the curves plotting survival against dose averaged from at least three independent experiments.

Take `O=C(Nc1cccc(F)c1)OC1CCCc2c(-c3ccccc3)cc(=O)[nH]c21` (stereo not drawn) [Compound 20d, (2-oxo-4-phenyl-5,6,7,8-tetrahydroquinolin-8-yl) N-(3-fluorophenyl)carbamate]: the 50% inhibitory concentration (IC50) with HEK293 cells was over 50 µM. Moreover, in the assay with HCT-116 cells [1] (HCT-116), the “expression of LAMP-1 protein” value was “time-dependent increase”, the expression of vimentin entry is recorded as “significantly altered”, the “level of phospho-AKT (Ser473)” value was “significantly reduced” and the “level of phospho-mTOR (Ser2448)” value was “significantly reduced”. The “expression of p-γ-H2AX” value with HCT-116 cells [1] (HCT-116, 24–72 h, immunoblot and immunofluorescence) was “significantly increased”. Also, in the assay on HCT-116 cells [1] (HCT-116, 72 h, vs DMSO), the “cyclin D1 expression” value is listed as “slight inhibition”. Moreover, the β-catenin entry in the assay on HCT-116 cells [1] (HCT-116, even after 24 h) is recorded as “caused the cleavage of β-catenin”. For the same compound, the “levels of LC3-II” value with HCT-116 cells [1] (HCT-116, vs control) is given as “higher”. For the same compound, in the assay with HCT-116 cells [1] (HCT-116, vs control, p < 0.001), the “expression of p21” value is recorded as “markedly higher”, the “expression of p27” value was “markedly higher” and the “expression of p53” value is “markedly higher”. In addition, the expression of c-myc result in the assay on HCT-116 cells [1] (HCT-116, vs vehicle) was “downregulated”. The “early and late apoptotic and necrotic fractions” value in the assay with HCT-116 cells [2] is recorded as “on the same level as in DMSO-treated group”. This compound also registered a concentration for half-maximal inhibition (IC50) in assay [3] (Homo sapiens, RKO, mean ± SD) of 1.21 ± 0.13 µM. Besides, in assay [3] (p < 0.001), the “fold higher sensitivity of MMR– RKO vs MMR+ RKO cells” value came out at 3.95 fold. Also, in the assay with A-549 cells (A-549), the “fold lower concentration than Cisplatin suppressing 50% of cell viability” value turned out to be 5 fold. For the same compound, in the assay with A-549 cells (Homo sapiens, A549, MTT, 72 h, IC50 ± SD), half-maximal inhibition (IC50) required 12.6 ± 0.54 µM.

As usually defined, the IC50 is the concentration at which inhibition is half-maximal.
